# Measured values from patent publication US20220233624A9, “ANTI-CANCER AND ANTI-PROLIFERATIVE COMPOSITIONS, AND METHODS FOR THEIR USE IN TREATING CANCER” (Natreon, Inc., priority 2020, published 2022).
# pIC50: −log10 of the molar value. Where “and” joins values, the source holds several entries; their conditions need not be identical. Equal values may be shown once. Read-outs that look alike come from different tables or passages of the source. Marks after values point to notes of the source that are not given here.
# Tests used:
# [1] = system: Breast Cancer PDCs, ER/PR− Her2+ (Her2+); test: Anti-proliferation assay on breast cancer Her2+ PDCs; type: cell-based, human; conditions: drug alone @ 3 uM; for inhibition at 3 µM: Homo sapiens; for % Inhibition, single replicates: 3 µM
# Procedure: (§1) The outermost rows/columns of the plates were filled with PBS (pH 7.4) to avoid an edge-effect and were considered as blanks. Standardized aqueous extracts identified in Table 2 were prepared in main stock solutions by dissolving 1 mg of extract in 1 ml PBS (phosphate-buffered saline, pH 7.4). […] The plate was incubated in a CO2 incubator for 0/N incubation for 24 hours. […] Once extracts were added to incubated cells and mixed gently, the plate was given a brief spin and incubated in the CO2 incubator for 72 hours. The plate was removed from the incubator and 10 ul of detection reagent (CellTiterGlo®; Promega Corporation, Wisconsin, USA) added to each well of the 384 well plate. […] The assay described above is a two-dimensional (2D) assay.
# [2] = system: Breast Cancer PDCs, Triple negative (TN), SB 36344; test: Anti-proliferation assay on breast cancer TN PDCs; type: cell-based, human; conditions: drug alone @ 3 uM; for inhibition at 3 µM: Homo sapiens; for % Inhibition, single replicates: 3 µM
# Procedure: as §1
# [3] = system: colon cancer cells (cell line HT-29); conditions: J. Surg. Res. 111(1):63-69 (2003); read-out: IC50 (published); cited from earlier work
# [4] = system: Breast Cancer PDCs, ER/PR+ Her2 equivocal (HR+); test: Anti-proliferation assay on breast cancer HR+ PDCs; type: cell-based, human; conditions: drug alone @ 3 uM; for inhibition at 3 µM: Homo sapiens; for % Inhibition, single replicates: 3 µM
# Procedure: as §1
# [5] = system: colon cancer cells (cell line HT-29); test: Anti-proliferation assay on colon cancer cells; type: cell-based; conditions: Homo sapiens
# Procedure: (§2) Anti-proliferative and anti-cancer activity of extracts of this invention on non-small cell lung cancer cells and colon cancer cells were assessed generally as described in Example I and are discussed below. […] As noted throughout this application, the below data is intended to describe the present invention but not to be limiting.
# (§3) Non-small cell lung cancer cells (cell line NCI-H-358) and colon cancer cells (cell line HT-29) were plated in a 384-well plate in amounts of about 1.25 k cells/well. […] Wells with untreated cells and with plain media were also included as controls. Plates passed quality control parameters.
# [6] = system: TN Breast Cancer cell line MDAMB-231; test: Anti-proliferation assay on MDAMB-231 cells (72 h and 120 h); type: cell-based; conditions: Homo sapiens, MDA-MB-231, 3 uM
# Procedure: Also, AyuFlex®, Capros®, and Ayuric® were tested in the anti-proliferative assay discussed above in the TN Breast Cancer cell line MDAMB-231. AyuFlex®, Capros®, and Ayuric® were incubated for 72 hours and 120 hours. The dose-response efficacy of AyuFlex®, Capros®, and Ayuric® after a 72-hour period of incubation was similar to that observed after a 120-hour period of incubation with the MDAMB-231 cells. Without being bound by theory, possibly this was due to saturation of cell growth at the 120-hour time-point.
# [7] = system: TN breast cancer PDCs SB 30750; test: Anti-proliferation assay on TN breast cancer PDCs SB 30750; type: cell-based; conditions: Homo sapiens, 3 uM, 72 h
# Procedure: In this Example, AyuFlex®, Capros®, and Ayuric® were each applied to different PDCs than previous tests, TN breast cancer PDCs SB 30750, and tested via the anti-proliferation assay described above. […] Incubation times were 72 hours.
# [8] = system: SHP-77 (small cell lung cancer) cells; test: Anti-proliferation assay on small cell lung cancer cells; type: cell-based; conditions: Homo sapiens, SHP77
# Procedure: SHP-77 (small cell lung cancer) cells were incubated for 72 hours with 100 ug/ml, 30 ug/ml, and 10 ug/ml each of AyuFlex®, Capros® Phyto-BGS®, PrimaVie®, Sensoril®, Ayuric®, and Crominex®, and tested according to the anti-proliferative assay described above. Cells were plated at 1.25 k/well in 384 well plates. Standard of care drug docetaxel was also tested at a 10 uM concentration as a control. Anti-proliferative assays were generally performed as discussed above, in triplicate, with detection reagent CellTiterGlo® as discussed for instance in Example I. Tables 77-79 show data for controls and that the data passed quality control parameters.
# [9] = system: Non-small cell lung cancer cells (cell line NCI-H-358); conditions: Intl. J. Oncol. 31:241-252 (2007); read-out: IC50 (published); cited from earlier work
# [10] = system: Prostate cancer (PC-3) cells; test: Anti-proliferation assay on prostate cancer cells; type: cell-based; conditions: Homo sapiens
# Procedure: (§4) Cells were plated at 1.25 k/well in 384 well plates. […] Anti-proliferative assays were generally performed as discussed in Example I above, in triplicate, with detection reagent CellTiterGlo. Tables 80-82 show data for controls for assays on prostate cancer (PC-3 cells), and that the data passed quality control parameters. Tables 83-85 show data for controls for assays on ovarian cancer (OVCAR-3 cells), and that the data passed quality control parameters.
# [11] = system: Ovarian cancer (OVCAR-3) cells; test: Anti-proliferation assay on ovarian cancer cells; type: cell-based; conditions: Homo sapiens
# Procedure: as §4
# [12] = system: Non-small cell lung cancer cells (cell line NCI-H-358); test: Anti-proliferation assay on non-small cell lung cancer cells; type: cell-based; conditions: Homo sapiens, NCI-H358
# Procedure: as §2, §3
# [13] = read-out: % Inhibition, single replicates
# [14] = drug 10 uM, read-out: inhibition of proliferation
# [15] = plate control @ 10 uM, read-out: % Inhibition Average (SD)
# [16] = plate control @ 10 uM, read-out: % Inhibition n1
# [17] = plate control @ 10 uM, read-out: % Inhibition n2
# [18] = plate control @ 10 uM, read-out: % Inhibition n3
# [19] = 72 hour incubation, read-out: % Inhibition Avg
# [20] = 72 hour incubation, read-out: % Inhibition n1
# [21] = 72 hour incubation, read-out: % Inhibition n2
# [22] = 72 hour incubation, read-out: % Inhibition n3
# [23] = 120 hour incubation, read-out: % Inhibition Avg
# [24] = 120 hour incubation, read-out: % Inhibition n1
# [25] = 120 hour incubation, read-out: % Inhibition n2
# [26] = 120 hour incubation, read-out: % Inhibition n3
# [27] = 10 uM, 72 h, read-out: % Inhibition Average (SD)
# [28] = 10 uM, 72 h, read-out: % Inhibition n1
# [29] = 10 uM, 72 h, read-out: % Inhibition n2
# [30] = 10 uM, 72 h, read-out: % Inhibition n3
# [31] = drug 10 uM, read-out: inhibition
smiles,measurement,setting,value
"O=c1[nH]cc(F)c(=O)[nH]1 [5-FU, 5-fluorouracil]",inhibition at 3 µM,[1],18%
same,"% Inhibition, single replicates",[1],41* % and 16% and 19%
same,inhibition at 3 µM,[2]; read-out: % Inhibition Avg,38%
same,inhibition at 3 µM,[2]; [13],48%
same,"% Inhibition, single replicates",[2],33%
same,pIC50,[3],4.89
same,inhibition at 3 µM,[4]; read-out: % Inhibition Avg,~28%
same,% Inhibition Avg,[4],29%
same,"% Inhibition, single replicates",[4],42% and 20% and 23%
same,inhibition at 10 µM,[5]; [14],12%
same,inhibition at 10 µM,[5]; [15],12%
same,inhibition at 10 µM,[5]; [16],20%
same,inhibition at 10 µM,[5]; [17],7%
same,inhibition at 10 µM,[5]; [18],10%
same,inhibition at 3 µM,[6]; [19],4%
same,inhibition at 3 µM,[6]; [20],21%
same,inhibition at 3 µM,[6]; [21],-5%
same,inhibition at 3 µM,[6]; [22],-4%
same,inhibition at 3 µM,[6]; [23],-8%
same,inhibition at 3 µM,[6]; [24],20%
same,inhibition at 3 µM,[6]; [25],-10%
same,inhibition at 3 µM,[6]; [26],-5%
same,inhibition at 3 µM,[7]; read-out: % Inhibition Avg,24%
same,inhibition at 3 µM,[7]; read-out: % Inhibition n1,44%
same,inhibition at 3 µM,[7]; read-out: % Inhibition n2,14%
same,inhibition at 3 µM,[7]; read-out: % Inhibition n3,14%
"CC(=O)O[C@@]12CO[C@@H]1C[C@H](O)[C@@]1(C)C(=O)[C@H](O)C3=C(C)[C@@H](OC(=O)[C@H](O)[C@@H](NC(=O)OC(C)(C)C)c4ccccc4)C[C@@](O)([C@@H](OC(=O)c4ccccc4)[C@H]21)C3(C)C [Docetaxel, docetaxel]",inhibition at 3 µM,[1],~50%
same,"% Inhibition, single replicates",[1],30* % and 43% and 57%
same,inhibition at 10 µM,[8]; [27],90%
same,inhibition at 10 µM,[8]; [28],90%
same,inhibition at 10 µM,[8]; [29],91%
same,inhibition at 10 µM,[8]; [30],89%
same,inhibition at 10 µM,[8]; [31],90%
same,pIC50,[9],6.44
same,inhibition at 3 µM,[2]; read-out: % Inhibition Avg,~48%
same,inhibition at 3 µM,[2]; [13],56%
same,"% Inhibition, single replicates",[2],44% and 43%
same,inhibition at 10 µM,[10]; [27],58%
same,inhibition at 10 µM,[10]; [28],53%
same,inhibition at 10 µM,[10]; [29],67%
same,inhibition at 10 µM,[10]; [30],56%
same,inhibition at 10 µM,[10]; [31],58%
same,inhibition at 10 µM,[11]; [27],66%
same,inhibition at 10 µM,[11]; [28],65%
same,inhibition at 10 µM,[11]; [29],68%
same,inhibition at 10 µM,[11]; [30],65%
same,inhibition at 10 µM,[11]; [31],66%
same,inhibition at 3 µM,[4]; read-out: % Inhibition Avg,~59%
same,inhibition at 3 µM,[4]; [13],67%
same,"% Inhibition, single replicates",[4],53% and 58%
same,inhibition at 10 µM,[12]; [14],58%
same,inhibition at 10 µM,[12]; [15],58%
same,inhibition at 10 µM,[12]; [16],63%
same,inhibition at 10 µM,[12]; [17],55%
same,inhibition at 10 µM,[12]; [18],58%
same,inhibition at 3 µM,[6]; [19],56%
same,inhibition at 3 µM,[6]; [20],67%
same,inhibition at 3 µM,[6]; [21],50%
same,inhibition at 3 µM,[6]; [22],52%
same,inhibition at 3 µM,[6]; [23],75%
same,inhibition at 3 µM,[6]; [24],78%
same,inhibition at 3 µM,[6]; [25],71%
same,inhibition at 3 µM,[6]; [26],76%
same,inhibition at 3 µM,[7]; read-out: % Inhibition Avg,56%
same,inhibition at 3 µM,[7]; read-out: % Inhibition n1,68%
same,inhibition at 3 µM,[7]; read-out: % Inhibition n2,52%
same,inhibition at 3 µM,[7]; read-out: % Inhibition n3,47%
